How the values were obtained:
[1] = target: T1, cloned human NMB-preferring receptor (BB1) (Homo sapiens, UniProt P28336); experiment: Receptor binding assay, cloned human NMB-preferring receptor (BB1), [125I][Tyr4]bombesin displacement; conditions: CHO-K1 cell membranes, 60 minutes incubation
T1 construct: expressed in transfected cells
Experimental: (§1) For binding experiments, cells were harvested by trypsinization, and stored frozen at -70° C. in Ham's F12 culture medium containing 5% DMSO until required. On the day of use, cells were thawed rapidly, diluted with an excess of culture medium, and centrifuged for 5 minutes at 2000 g. Cells were resuspended in 50 mM Tris-HCl assay buffer (pH 7.4 at 21° C., containing 0.02% BSA, 40 μg/ml bacitracin, 2 μg/mL chymostatin, 4 μg/mL leupeptin, and 2 μM phosphoramidon), counted, and polytronned (setting 5, 10 sec) before centrifuging for 10 minutes at 28,000 g. The final pellet was resuspended in assay buffer to a final cell concentration of 1.5×10^5 /mL. […] Radioactivity bound was determined using a gamma counter.

[2] = target: T2, cloned human GRP-preferring receptor (BB2) (Homo sapiens, UniProt P30550); experiment: Receptor binding assay, cloned human GRP-preferring receptor (BB2), [125I][Tyr4]bombesin displacement; conditions: CHO-K1 cell membranes, 90 minutes incubation
T2 construct: expressed in transfected cells
T2 sequence (P30550 whole entry): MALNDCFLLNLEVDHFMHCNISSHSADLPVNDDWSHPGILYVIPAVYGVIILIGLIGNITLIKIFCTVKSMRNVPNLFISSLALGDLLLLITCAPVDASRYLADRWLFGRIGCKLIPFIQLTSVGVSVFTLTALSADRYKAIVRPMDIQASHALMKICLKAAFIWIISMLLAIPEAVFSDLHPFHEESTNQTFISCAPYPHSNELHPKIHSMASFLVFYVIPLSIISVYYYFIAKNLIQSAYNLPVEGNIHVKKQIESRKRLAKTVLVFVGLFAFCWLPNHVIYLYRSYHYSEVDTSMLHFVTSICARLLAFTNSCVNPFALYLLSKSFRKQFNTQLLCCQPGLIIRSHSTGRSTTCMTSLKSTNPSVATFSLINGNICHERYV
Experimental: as §1, with “The compounds of the invention have been evaluated in receptor binding assays which measure the affinity of the novel compounds in a cloned human NMB-preferring receptor (BB1) assay and in a cloned human GRP-preferring receptor (BB2) assay. Protocol for Binding Assays […] For” for “For”

[3] = target: T3, cloned human NMB-preferring receptors expressed in CHO cells (Homo sapiens, UniProt P28336); experiment: Measurement of extracellular acidification (CYTOSENSOR) in CHO-NMB cells; type: cell-based; conditions: NMB-preferring receptor (BB1), antagonist 30 minutes prior to agonist, 37° C.
T3 construct: functional calcium (Fura-2) and Cytosensor acidification assays
T3 sequence (P28336 whole entry): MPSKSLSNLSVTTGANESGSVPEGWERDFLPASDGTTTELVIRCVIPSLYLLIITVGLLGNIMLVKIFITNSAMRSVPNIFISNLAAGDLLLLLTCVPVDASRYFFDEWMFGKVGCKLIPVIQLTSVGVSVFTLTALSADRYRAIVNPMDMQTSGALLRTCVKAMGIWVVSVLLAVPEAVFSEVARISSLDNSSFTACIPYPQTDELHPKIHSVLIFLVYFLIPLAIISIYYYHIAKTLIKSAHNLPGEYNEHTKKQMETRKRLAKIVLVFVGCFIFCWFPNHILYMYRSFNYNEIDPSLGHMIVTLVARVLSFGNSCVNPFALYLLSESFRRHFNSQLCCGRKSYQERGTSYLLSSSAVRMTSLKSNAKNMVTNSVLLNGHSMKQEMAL
Text: The compounds of the invention have been tested in in vitro functional assays using cloned human NMB-preferring receptors expressed in CHO cells.
Protocols for functional assays:
2. Measurement of extracellular acidification (CYTOSENSOR)
This acidification rate is detected as a change in potential across a silicon light addressable sensor, during periods of media cessation (McConnell, et al., 1992).
CHO-NMB Cells seeded on polycarbonate microporous capsule cups were placed insensor chambers at 37° C. inside the microphysiometer, and maintained by a flow of nonbuffering Ham's F12 nutrient media (growth media without NaHCO3, pH 7.3-7.4) at approximately 120 μL/min. The flow was halted for 22 seconds at the end of each 2 minute repeated cycle, and the rate of acidification (μ volts/sec) measured for 15 seconds during that period.
Agonists were introduced sequentially every 28 to 30 minutes to the perfusing media, 20 seconds before flow-off periods, and removed after two rate measurements via the automatic valve-switch.
The effects of various antagonists were determined after continuous perfusion 30 minutes prior to, and throughout the application of agonists. All agents were applied at the working pH of the media.

T1 sequence (P28336 whole entry): as above

Row | SMILES | Ki [1] | Ki [2] | Acidification Response appKB [3]
1 | CC(C)c1cccc(C(C)C)c1NC(=O)N[C@](C)(Cc1c[nH]c2ccccc12)C(=O)N[C@H]1CCCc2ccccc21 [Example 2, 2-[3-(2,6-Diisopropyl-phenyl)-ureido]-3-(1H-indol-3-yl)-2-methyl-N-(1,2,3,4-tetrahydro-naphthalen-1-yl)-propionamide] | 0.014 µM | > 10 µM | 54.3
2 | CC(C)c1cccc(C(C)C)c1NC(=O)N[C@](C)(Cc1c[nH]c2ccccc12)C(=O)N[C@H]1CCc2ccccc21 [Example 3, 2-[3-(2,6-Diisopropyl-phenyl)-ureido]-N-indan-1-yl-3-(1H-indol-3-yl)-2-methyl-propionamide] | 0.13 µM | > 10 µM | –
3 | CC(C)c1cccc(C(C)C)c1NC(=O)NC(C)(Cc1c[nH]c2ccccc12)C(=O)NCCC1CCCCC1 (stereo not drawn) [Example 4, N-(2-Cyclohexyl-ethyl)-2-[3-(2,6-diisopropyl-phenyl)-ureido]-3-(1H-indol-3-yl)-2-methyl-propionamide] | 0.215 µM | > 10 µM | –
4 | CC(C)c1cccc(C(C)C)c1NC(=O)NC(C)(Cc1c[nH]c2ccccc12)C(=O)Nc1ccccc1 (stereo not drawn) [Example 5] | 0.942 µM | > 10 µM | –
5 | CC(C)c1cccc(C(C)C)c1NC(=O)N[C@](C)(Cc1c[nH]c2ccccc12)C(=O)N[C@H]1CCCC[C@H]1c1ccccc1 [Example 6, 2-[3-(2,6-Diisopropyl-phenyl)-ureido]-3-(1H-indol-3-yl)-2-methyl-N-(2-phenyl-cyclohexyl)-propionamide] | 0.783 µM | > 10 µM | –
6 | CC(C)c1cccc(C(C)C)c1NC(=O)NC(Cc1c[nH]c2ccccc12)C(=O)N(C)CC1CCCCC1 (stereo not drawn) [Example 7, N-Cyclohexylmethyl-2-[3-(2,6-diisopropyl-phenyl)-ureido]-3-(1H-indol-3-yl)-N-methyl-propionamide] | 0.487 µM | > 10 µM | –
7 | CC(Cc1c[nH]c2ccccc12)(NC(=O)Nc1ccc([N+](=O)[O-])cc1)C(=O)NCC1CCCCC1 (stereo not drawn) [Example 8] | 0.003 µM | 0.45 µM | –
8 | CC(Cc1c[nH]c2ccccc12)(NC(=O)Nc1ccc([N+](=O)[O-])cc1)C(=O)NCC1(O)CCCCC1 (stereo not drawn) [Example 9] | 0.0033 µM | 1.13 µM | –
9 | CC(C)c1cccc(C(C)C)c1NC(=O)N(C)C(Cc1c[nH]c2ccccc12)C(=O)NCC1CCCCC1 (stereo not drawn) [Example 10, N-Cyclohexylmethyl-2-[3-(2,6-diisopropyl-phenyl)-1-methyl-ureido]-3-(1H-indol-3-yl)-propionamide] | 0.758 µM | 1.46 µM | –
10 | CC(C)c1cccc(C(C)C)c1NC(=O)N[C@@](C)(Cc1c[nH]c2ccccc12)C(=O)NCC1CCCCC1 [Example 11, N-Cyclohexylmethyl-2-[3-(2,6-diisopropyl-phenyl)-ureido]-3-(1H-indol-3-yl)-2-methyl-propionamide] | 0.103 µM | > 10 µM | –
11 | C[C@H](NC(=O)N[C@@](C)(Cc1c[nH]c2ccccc12)C(=O)NCC1(c2ccccn2)CCCCC1)c1ccc([N+](=O)[O-])cc1 [Example 12] | 0.0007 µM | 0.06 µM | –
12 | C[C@@](Cc1c[nH]c2ccccc12)(NC(=O)Nc1ccc(C#N)cc1)C(=O)NCC1(c2ccccn2)CCCCC1 [Example 13] | 0.0003 µM | 0.038 µM | –
13 | C[C@@](Cc1c[nH]c2ccccc12)(NC(=O)Nc1ccc(C(F)(F)F)cc1)C(=O)NCC1(c2ccccn2)CCCCC1 [Example 15] | 0.002 µM | 0.165 µM | –

Other lines, results leading:

Row | Ki [1] | Ki [2] | Acidification Response appKB [3] | SMILES
14 | 0.095 µM | – | – | CC(C)c1cccc(C(C)C)c1NC(=O)NC(C)(Cc1c[nH]c2ccccc12)C(=O)N[C@H]1COC(C)(C)O[C@H]1c1ccccc1 (single isomer, unassigned) [Example 25]
15 | 0.003 µM | 0.14 µM | – | CCOC(=O)c1ccc(NC(=O)N[C@@](C)(Cc2c[nH]c3ccccc23)C(=O)NCC2(c3ccccn3)CCCCC2)cc1 [Example 16]
16 | 3.31 µM | 2.94 µM | – | COc1cccc(OC)c1NC(=O)NC(C)(Cc1c[nH]c2ccccc12)C(=O)NCC1CCCCC1 (stereo not drawn) [Example 17, N-Cyclohexylmethyl-2-[3-(2,6-dimethoxy-phenyl)ureido]-3-(1H-indol-3-yl)-2-methyl-propionamide]
17 | 0.025 µM | > 10 µM | – | CC(C)c1cccc(C(C)C)c1NC(=O)[C@H](Cc1c[nH]c2ccccc12)NC(=O)NC(c1ccccc1)C(C)(C)C (stereo partly drawn) [Example 18, (S)-N-(2,6-Diisopropyl-phenyl)-2-[3-(2,2-dimethyl-1-phenyl-propyl)-ureido]-3-(1H-indol-3-yl)-propionamide]
18 | 0.003 µM | 0.762 µM | – | CC(C)c1cccc(C(C)C)c1NC(=O)NC(C)(Cc1cccc[n+]1[O-])C(=O)NCC1(c2ccccn2)CCCCC1 (stereo not drawn) [Example 19, 2-[3-(2,6-Diisopropyl-phenyl)-ureido]-2-methyl-3-(1-oxy-pyridin-2-yl)-N-(1-pyridin-2-yl-cyclohexylmethyl)-propionamide]
19 | 0.033 µM | > 10 µM | – | CC(C)c1cccc(C(C)C)c1NC(=O)NC(C)(Cc1ccccc1C(F)(F)F)C(=O)NCC1(c2ccccn2)CCCCC1 (stereo not drawn) [Example 20]
20 | 0.02 µM | 2.55 µM | – | CC(C)c1cccc(C(C)C)c1NC(=O)NC(C)(Cc1ccccc1[N+](=O)[O-])C(=O)NCC1(c2ccccn2)CCCCC1 (stereo not drawn) [Example 21]
21 | 0.035 µM | 0.589 µM | – | CC(C)c1cccc(C(C)C)c1NC(=O)NC(C)(Cc1ccccn1)C(=O)NCC1(c2ccccn2)CCCCC1 (stereo not drawn) [Example 22, 2-[3-(2,6-Diisopropyl-phenyl)-ureido]-2-methyl-3-pyridin-2-yl-N-(1-pyridin-2-yl-cyclohexylmethyl)-propionamide]
22 | 0.016 µM | 5.36 µM | – | CC(C)c1cccc(C(C)C)c1NC(=O)NC(Cc1c[nH]cn1)C(=O)NCC1(c2ccccn2)CCCCC1 (stereo not drawn) [Example 23]
23 | 0.413 µM | > 10 µM | – | CC(C)c1cccc(C(C)C)c1N(C)C(=O)NC(C)(Cc1c[nH]c2ccccc12)C(=O)NCC1CCCCC1 (stereo not drawn) [Example 24]
24 | 0.00025 µM | 0.029 µM | – | Cc1nc(C2(CNC(=O)C(C)(Cc3c[nH]c4ccccc34)NC(=O)Nc3ccc([N+](=O)[O-])cc3)CCCCC2)cs1 (stereo not drawn) [Example 26]
25 | – | 0.001 µM | – | COc1ccc(C2(CNC(=O)C(C)(Cc3c[nH]c4ccccc34)NC(=O)Nc3ccc([N+](=O)[O-])cc3)CCCCC2)nc1 (stereo not drawn) [Example 27]
26 | 0.00081 µM | 0.079 µM | – | CN(C)Cc1ccc(C2(CNC(=O)C(C)(Cc3c[nH]c4ccccc34)NC(=O)Nc3ccc([N+](=O)[O-])cc3)CCCCC2)cc1 (stereo not drawn) [Example 28]
27 | 0.01 µM | > 10 µM | – | CC(Cc1c[nH]c2ccccc12)(NC(=O)Nc1ccc([N+](=O)[O-])cc1)C(=O)NCC(c1ccccc1)N1CCCCC1 (stereo not drawn) [Example 29]
28 | 0.00017 µM | 0.021 µM | – | CC(Cc1c[nH]c2ccccc12)(NC(=O)Nc1ccc([N+](=O)[O-])cc1)C(=O)NCC1(c2c[nH]cn2)CCCCC1 (stereo not drawn) [Example 31]
29 | 0.00017 µM | 0.02 µM | – | COc1ccc(C2(CNC(=O)C(C)(Cc3c[nH]c4ccccc34)NC(=O)Nc3ccc(C#N)cc3)CCCCC2)nc1 (stereo not drawn) [Example 32]

Reference: patent US6194437A (Warner-Lambert Company, priority 1999, dated 2001)
